Legend:
[1] = test system: MCL-1 expression in MV-4-11 cells; test: MCL-1 protein expression in MV-4-11 cells treated in vitro; type: cell-based
Protocol: MV-4-11 cells were treated with alvocidib in vitro, harvested and analyzed to probe for changes relative to controls. Additionally, other exemplary CDK9 inhibitors (i.e., palbociclib and dinaciclib) were evaluated, along with alvocidib.

[2] = test system: OCI-AML3 cells; test: In vivo tumor growth, immune deficient mice injected with OCI-AML3 cells; details: 2.5 mg/kg intraperitoneal, once a day for 21 days, by day 21, FIG. 3
Protocol: Alvocidib was used alone to test in vivo activity in OCI-AML3 cells. […] To test the in vivo activity, immune deficient mice injected with OCI-AML3 cells were treated with 2.5 mg/kg of alvocidib via intraperitoneal injection or 100 mg/kg of Venetoclax/ABT-199 per os (i.e., oral administration). Each treatment (i.e., alvocidib and Venetoclax/ABT-199) was administered once a day for 21 days.

[3] = test system: MCL-1 expression in OCI-AML3 cells; test: MCL-1 expression in OCI-AML3 cells in vitro; type: cell-based; details: multiple time points after treatment, FIG. 4
Excerpt: MCL-1 expression was decreased in OCI-AML3 cells at multiple time points following treatment with alvocidib (FIG. 4).

[4] = test system: HEL cells; test: Cell viability (CellTiter-Glo) in HEL erythroleukemia cells; type: cell-based; details: 72 hours, compared to Venetoclax, FIG. 5
Protocol: (§1) To assess the effects of alvocidib or Venetoclax treatment on leukemic cells, the erythroleukima cell line, HEL, was cultured in RPMI media supplemented with 10% FBS and penicillin/streptomycin. Cell viability was assessed in treated cells using the CellTiter-Glo reagent (Promega), according to manufacturer protocol. Cells were treated in 96-well plates for 72 hours, before being analyzed in a luminescence compatible plate reader. Curve fitting and analysis was performed using Graphpad Prism software.

[5] = test system: OPM2 cells; test: Cell viability (CellTiter-Glo) in OPM2 multiple myeloma cells; type: cell-based; details: 72 hours, compared to Venetoclax, FIG. 6
Protocol: as §1, with “multiple myeloma” for “leukemic”, “OPM2 cells were” for “the erythroleukima cell line, HEL, was”

[6] = test system: OCI-AML3 cells; test: Sensitivity of OCI-AML3 cells to Venetoclax/ABT-199; type: cell-based; details: Homo sapiens, OCI-AML-3
[7] = in vivo; cited from earlier work

## CN1CC[C@H](c2c(O)cc(O)c3c(=O)cc(-c4ccccc4Cl)oc23)[C@H](O)C1 [alvocidib]
[1]; 24 hour treatment, FIG. 2
  MCL-1 expression: decreased MCL-1 expression
  impact on MCL-1 protein levels compared with the other CDK9 inhibitors: strongest impact on MCL-1 protein levels
[1]; alvocidib 0-8 μM, FIG. 1
  MCL-1 expression relative to controls: decreases MCL-1 expression in MV-4-11 in a dose dependent manner
[2]
  reduction in tumor growth: 50%
[3]
  MCL-1 expression: decreased
[4]
  cell viability: inhibition of cell viability
[5]
  cell viability: inhibition of cell viability

## CC1(C)CCC(CN2CCN(c3ccc(C(=O)NS(=O)(=O)c4ccc(NCC5CCOCC5)c([N+](=O)[O-])c4)c(Oc4cnc5[nH]ccc5c4)c3)CC2)=C(c2ccc(Cl)cc2)C1 [Venetoclax]
[6]
  EC50: 2330 nM

## CC1(C)CCC(c2ccc(Cl)cc2)=C(CN2CCN(c3ccc(C(=O)NS(=O)(=O)c4ccc(N[C@H](CCN5CCOCC5)CSc5ccccc5)c(S(=O)(=O)C(F)(F)F)c4)cc3)CC2)C1 [navitoclax]
[7]
  toxicity: toxic due to thrombocytopenia
